Experimental data as given in patent US20260209214A1, “LSD1 MODULATORS” (RECURSION PHARMACEUTICALS, INC., priority 2022, published 2026).

Target: Recombinant human LSD1 (Homo sapiens, UniProt O60341)
Test: LSD1 inhibition assay (HTRF LSD1 Histone H3K4 mono-demethylation assay, me1->me0)
Type: biochemical
Conditions: 20 nM recombinant human LSD1, 95 nM H3K4(me1) biotinylated peptide, 15 min preincubation, 60 min at 25° C., read-out: LSD1 inhibition IC50 (nM range)
How it was run: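 Recombinant human LSD1 (20 nM) pre-incubated 15 min with 10 semi-log compound doses, then 95 nM biotinylated H3K4me1 peptide for 60 min at 25 °C in pH 8.5 Tris/NaCl buffer with 10 μM FAD, 1 mM DTT. HTRF me0-antibody read after 90 min; IC50 from 4-parameter fit.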

| SMILES | IC50 [nM] |
| --- | --- |
| N#Cc1ccc(-c2cccc(CN3[C@H]4CC[C@@H]3[C@H](N)C4)c2-c2ccns2)cc1 (single isomer, unassigned) [Example 187] | 10 to 25 |
| CN[C@@H]1C[C@@H]2CC[C@H]1N2Cc1cccc(-c2ccc(C#N)c(F)c2)c1-c1ccns1 (single isomer, unassigned) [Example 190] | < 10 |
| CC1(C)CN(Cc2cccc(-c3ccc(C#N)c(F)c3)c2-c2ccns2)C[C@H]1N (single isomer, unassigned) [Example 194] | < 10 |
| CC1(C)CN(Cc2cccc(-c3ccc(C#N)c(F)c3)c2-c2ccns2)C[C@@H]1N (single isomer, unassigned) [Example 197] | < 10 |
| CCN[C@@H]1C[C@@H]2CC[C@H]1N2Cc1cccc(-c2ccc(C#N)c(F)c2)c1C1CC1 (single isomer, unassigned) [Example 201] | 10 to 25 |
| N#Cc1ccc(-c2cccc(CN3[C@@H]4CC[C@H]3[C@@H](N)C4)c2-c2ccns2)cc1 (single isomer, unassigned) [Example 204] | 10 to 25 |
| CCCc1c(CN2[C@H]3CC[C@@H]2[C@H](N)C3)cccc1-c1ccc(C#N)c(F)c1 (single isomer, unassigned) [Example 212] | 25 to 100 |
| N#Cc1ccc(-c2cccc(CN3[C@H]4CC[C@@H]3[C@H](N)C4)c2CC2CC2)cc1F (single isomer, unassigned) [Example 221] | 25 to 100 |
| N#Cc1ccc(-c2cc(F)cc(CN3[C@H]4CC[C@@H]3[C@H](N)C4)c2C2CC2)cc1F (single isomer, unassigned) [Example 223] | 10 to 25 |
| CC(C)N[C@@H]1C[C@@H]2CC[C@H]1N2Cc1cccc(-c2ccc(C#N)c(F)c2)c1C1CC1 (single isomer, unassigned) [Example 248] | 100 to 1000 |
| N#Cc1ccc(-c2cccc(CN3[C@@H]4CC[C@H]3[C@@H](N)C4)c2C2CC2)cc1F (single isomer, unassigned) [Example 261] | 100 to 1000 |
| N#Cc1ccc(-c2cccc(CC3CNCCO3)c2-c2ocnc2F)cc1 (stereo in doubt) [Example 2, 2′-(4-fluoro-1,3-oxazol-5-yl)-3′-{[(2R)-morpholin-2-yl]methyl}-[1,1′-biphenyl]-4-carbonitrile] | 10 to 25 |
| CN1C[C@@H]2C[C@H]1CN2Cc1cc(-c2ccc(C#N)c(F)c2)cc(N2CCCC2)c1 (stereo in doubt) [Example 300, 2-fluoro-4-[3-[[(1S,4S)-5-methyl-2,5-diazabicyclo[2.2.1]heptan-2-yl]methyl]-5-pyrrolidin-1-yl-phenyl]benzonitrile] | 100 to 1000 |
| N#Cc1ccc(-c2cccc(CN3C[C@H]4C[C@@H](N)C[C@@H]3C4)c2C2CC2)cc1F (stereo in doubt) [Example 318, 3'-{[(1S,3R,5S)-3-amino-6-azabicyclo[3.2.1]octan-6-yl]methyl}-2'-cyclopropyl-3-fluoro-[1,1'-biphenyl]-4-carbonitrile] | 25 to 100 |
| Cn1cc2cc(-c3ccc(CC4CNCCO4)cc3-c3ccc(C#N)c(F)c3)ccc2n1 (stereo not drawn) [Compound 58] | 100 to 1000 |
| Cc1cc(CN2CCC3(CCN3C)C2)c(Cl)c(-c2ccc(C#N)c(F)c2)c1 (stereo not drawn) [Compound 240] | 25 to 100 |
| N#Cc1ccc(-c2cccc(CC3CNCCO3)c2-c2ccns2)cc1 (stereo not drawn) [Example 1, 3′-[(morpholin-2-yl)methyl]-2′-(1,2-thiazol-5-yl)-[1,1′-biphenyl]-4-carbonitrile] | 10 to 25 |
| N#Cc1ccc(-c2cccc(C[C@@H]3CNCCO3)c2-c2ocnc2F)cc1 [Example 3, 2′-(4-fluoro-1,3-oxazol-5-yl)-3′-{[(2R)-orpholin-2-yl]methyl}-[1,1′-biphenyl]-4-carbonitrile] | 10 to 25 |
| N#Cc1ccc(-c2cccc(C[C@H]3CNCCO3)c2-c2ccns2)cc1F [Example 4, 3-fluoro-3′-{[(2S)-morpholin-2-yl]methyl}-2′-(1,2-thiazol-5-yl)-[1,1′-biphenyl]-4-carbonitrile] | < 10 |
| N#Cc1ccc(-c2cccc(CC3CNCCO3)c2C2=CCOC2)cc1F (stereo not drawn) [Example 10, 2′-(2,5-dihydrofuran-3-yl)-3-fluoro-3′-[(morpholin-2-yl)methyl]-[1,1′-biphenyl]-4-carbonitrile] | 10 to 25 |
| N#Cc1ccc(-c2cccc(CC3CNCCO3)c2-c2ccno2)cc1 (stereo not drawn) [Example 12, 3′-[(morpholin-2-yl)methyl]-2′-(1,2-oxazol-5-yl)-[1,1′-biphenyl]-4-carbonitrile] | 10 to 25 |

| SMILES | IC50 [nM] |
| --- | --- |
| N#Cc1ccc(-c2cccc(C[C@H]3CNCCO3)c2-c2ocnc2F)cc1F [Example 15, 3-fluoro-2′-(4-fluoro-1,3-oxazol-5-yl)-3′-{[(2S)-morpholin-2-yl]methyl}-[1,1′-biphenyl]-4-carbonitrile] | < 10 |
| N#Cc1ccc(-c2cccc(CC3CNCCO3)c2-c2ccno2)cc1F (stereo not drawn) [Example 16, 3-fluoro-3′-[(morpholin-2-yl)methyl]-2′-(1,2-oxazol-5-yl)-[1,1′-biphenyl]-4-carbonitrile] | 10 to 25 |
| N#Cc1ccc(-c2cc(F)cc(CC3CNCCO3)c2-c2ccns2)cc1F (stereo not drawn) [Example 18, 3,5′-difluoro-3′-[(morpholin-2-yl)methyl]-2′-(1,2-thiazol-5-yl)-[1,1′-biphenyl]-4-carbonitrile] | 10 to 25 |
| N#Cc1ccc(-c2cc(F)cc(CC3CNCCO3)c2-c2cncs2)cc1F (stereo not drawn) [Example 19, 3,5′-difluoro-3′-[(morpholin-2-yl)methyl]-2′-(1,3-thiazol-5-yl)-[1,1′-biphenyl]-4-carbonitrile] | 10 to 25 |
| N#Cc1ccc(-c2cccc(CC3CNCCCO3)c2-c2ccns2)cc1F (stereo not drawn) [Example 20, 3-fluoro-3′-[(1,4-oxazepan-2-yl)methyl]-2′-(1,2-thiazol-5-yl)-[1,1′-biphenyl]-4-carbonitrile] | < 10 |
| N#Cc1ccc(-c2cccc(CC3CNCCO3)c2N2CCC2)cc1F (stereo not drawn) [Example 21, 2′-(azetidin-1-yl)-3-fluoro-3′-[(morpholin-2-yl)methyl]-[1,1′-biphenyl]-4-carbonitrile] | 100 to 1000 |
| Cc1ncsc1-c1c(CC2CNCCO2)cccc1-c1ccc(C#N)c(F)c1 (stereo not drawn) [Example 24, 3-fluoro-2′-(4-methyl-1,3-thiazol-5-yl)-3′-[(morpholin-2-yl)methyl]-[1,1′-biphenyl]-4-carbonitrile] | 10 to 25 |
| N#Cc1ccc(-c2ccc(F)c(CC3CNCCO3)c2-c2cncs2)cc1F (stereo not drawn) [Example 25, 3,4′-difluoro-3′-[(morpholin-2-yl)methyl]-2′-(1,3-thiazol-5-yl)-[1,1′-biphenyl]-4-carbonitrile] | 10 to 25 |
| N#Cc1ccc(-c2cccc(CC3CNCCO3)c2-c2cnco2)cc1 (stereo not drawn) [Example 27, 3′-[(morpholin-2-yl)methyl]-2′-(1,3-oxazol-5-yl)-[1,1′-biphenyl]-4-carbonitrile] | 25 to 100 |
| N#Cc1ccc(-c2cccc(C[C@@H]3CNCCO3)c2-c2ccns2)cc1F [Example 28, 3-fluoro-3′-{[(2R)-morpholin-2-yl]methyl}-2′-(1,2-thiazol-5-yl)-[1,1′-biphenyl]-4-carbonitrile] | < 10 |
| N#Cc1ccc(-c2cccc(CC3CNCCO3)c2-c2ocnc2F)cc1F (stereo not drawn) [Example 29, 3-fluoro-2′-(4-fluoro-1,3-oxazol-5-yl)-3′-[(morpholin-2-yl)methyl]-[1,1′-biphenyl]-4-carbonitrile] | 10 to 25 |
| N#Cc1ccc(-c2cccc(CC3CNCCO3)c2-c2cccnc2)cc1F (stereo not drawn) [Example 32, 3-fluoro-3′-[(morpholin-2-yl)methyl]-2′-(pyridin-3-yl)-[1,1′-biphenyl]-4-carbonitrile] | 25 to 100 |
| CCC1(O)CCN(c2ccc(CC3CNCCO3)cc2-c2ccc(C#N)c(F)c2)CC1 (stereo not drawn) [Example 33, 2′-(4-ethyl-4-hydroxypiperidin-1-yl)-3-fluoro-5′-[(morpholin-2-yl)methyl]-[1,1′-biphenyl]-4-carbonitrile] | 25 to 100 |
| N#Cc1ccc(-c2cccc(CC3CNCCO3)c2-c2cncs2)cc1 (stereo not drawn) [Example 34, 3′-[(morpholin-2-yl)methyl]-2′-(1,3-thiazol-5-yl)-[1,1′-biphenyl]-4-carbonitrile] | 10 to 25 |
| Cc1nocc1-c1c(CC2CNCCO2)cccc1-c1ccc(C#N)c(F)c1 (stereo not drawn) [Example 35, 3-fluoro-2′-(3-methyl-1,2-oxazol-4-yl)-3′-[(morpholin-2-yl)methyl]-[1,1′-biphenyl]-4-carbonitrile] | 25 to 100 |
| N#Cc1ccc(-c2cccc(CC3CNCCO3)c2-c2ccns2)cc1F (stereo not drawn) [Example 36, 3-fluoro-3′-[(morpholin-2-yl)methyl]-2′-(1,2-thiazol-5-yl)-[1,1′-biphenyl]-4-carbonitrile] | 10 to 25 |
| Cc1ncsc1-c1c(CC2CNCCO2)cccc1-c1ccc(C#N)cc1 (stereo not drawn) [Example 38, 2′-(4-methyl-1,3-thiazol-5-yl)-3′-[(morpholin-2-yl)methyl]-[1,1′-biphenyl]-4-carbonitrile] | 10 to 25 |
| Cc1cc(CC2CNCCO2)c(-c2cncs2)c(-c2ccc(C#N)cc2)c1 (stereo not drawn) [Example 39, 5′-methyl-3′-[(morpholin-2-yl)methyl]-2′-(1,3-thiazol-5-yl)-[1,1′-biphenyl]-4-carbonitrile] | 10 to 25 |
| N#Cc1ccc(-c2cccc(CC3CNCCO3)c2N2CC(F)C2)cc1F (stereo not drawn) [Example 40, 3-fluoro-2′-(3-fluoroazetidin-1-yl)-3′-[(morpholin-2-yl)methyl]-[1,1′-biphenyl]-4-carbonitrile] | 100 to 1000 |
| N#Cc1ccc(-c2cccc(CC3CNCCO3)c2C2CC2)cc1F (stereo not drawn) [Example 42, 2′-cyclopropyl-3-fluoro-3′-[(morpholin-2-yl)methyl]-[1,1′-biphenyl]-4-carbonitrile] | 100 to 1000 |
| Cc1cc(-c2cccc(CC3CNCCO3)c2-c2ccns2)ccc1C#N (stereo not drawn) [Example 43, 3-methyl-3′-[(morpholin-2-yl)methyl]-2′-(1,2-thiazol-5-yl)-[1,1′-biphenyl]-4-carbonitrile] | 25 to 100 |
